# Assay results reported in publication PMC2714694, “Conservation of the glucan phosphatase laforin is linked to rates of molecular evolution and the glucan metabolism of the organism” (BMC Evolutionary Biology, 2009).
# Biological target: T1, Nv-laforin (Nematostella vectensis, UniProt A7SVW9)
# T1 construct: gene NEMVEDRAFT_v1g194103; complete open reading frame from Nematostella DNA; GST-Nv-laforin-HIS6 from E. coli BL21 (DE3) CodonPlus RIL; CBM20 plus DSP
# T1 sequence (A7SVW9 1-324): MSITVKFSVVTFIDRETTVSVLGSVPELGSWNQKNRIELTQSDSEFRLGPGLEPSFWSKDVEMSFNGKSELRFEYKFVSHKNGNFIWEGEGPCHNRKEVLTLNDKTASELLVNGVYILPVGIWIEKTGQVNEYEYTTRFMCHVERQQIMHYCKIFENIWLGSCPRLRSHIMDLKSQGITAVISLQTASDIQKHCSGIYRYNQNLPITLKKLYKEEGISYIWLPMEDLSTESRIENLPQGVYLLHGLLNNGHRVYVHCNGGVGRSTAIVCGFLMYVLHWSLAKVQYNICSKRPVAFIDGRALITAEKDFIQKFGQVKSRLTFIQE
# Assay: p-NPP hydrolysis, absorbance […] nm
# Assay type: biochemical
# Conditions: 50 mM pNPP, pH 5-8 tested (optimum pH 7.5), 37 °C, 2 mM dithiothreitol, 0.1 M sodium acetate, 0.05 M bis-Tris, 0.05 M Tris-HCl
smiles,measurement,value
O=[N+]([O-])c1ccc(OP(=O)(O)O)cc1 [para-nitrophenylphosphate],"p-NPP hydrolysis, absorbance 410 nm",Both Bf- and Nv-laforin also utilized p-NPP as an artificial substrate
